Experimental data as given in ChEMBL document CHEMBL3785049, “Fragment-based discovery of inhibitor scaffolds targeting the metallo-β-lactamases NDM-1 and VIM-2” (Bioorg Med Chem Lett, 2016).

Experiments:
[1] = target: T1, Metallo-beta-lactamase type 2 (Klebsiella pneumoniae, UniProt C7C422); assay: Binding affinity to His-tagged Klebsiella pneumoniae NDM-1 expressed in Escherichia coli BL21-AI cells by surface plasmon resonance assay
[2] = target: T1, Metallo-beta-lactamase type 2; assay: Inhibition of His-tagged Klebsiella pneumoniae NDM-1 expressed in Escherichia coli BL21-AI cells using imipinem as substrate
[3] = target: Metallo-beta-lactamase type 2 (Klebsiella pneumoniae) (UniProt C7C422); assay: Inhibition of His-tagged Klebsiella pneumoniae NDM-1 expressed in Escherichia coli BL21-AI cells at 500 uM using imipinem as substrate
Sequence of Metallo-beta-lactamase type 2 (Klebsiella pneumoniae) (C7C422 whole entry): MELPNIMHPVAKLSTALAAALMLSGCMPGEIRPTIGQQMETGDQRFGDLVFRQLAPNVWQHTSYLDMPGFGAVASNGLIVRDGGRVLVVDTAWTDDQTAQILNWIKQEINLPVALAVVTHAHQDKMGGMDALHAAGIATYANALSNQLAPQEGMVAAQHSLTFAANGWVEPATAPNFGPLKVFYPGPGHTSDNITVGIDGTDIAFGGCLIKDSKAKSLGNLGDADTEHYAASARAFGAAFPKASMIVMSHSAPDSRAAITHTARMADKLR

[4] = target: Metallo-beta-lactamase type 2 (Klebsiella pneumoniae) (UniProt C7C422); assay: Ratio of IC50 for inhibition of His-tagged Klebsiella pneumoniae NDM-1 expressed in Escherichia coli BL21-AI cells using imipinem as substrate to Kd for Binding affinity to His-tagged Klebsiella pneumoniae NDM-1 expressed in Escherichia coli BL21-AI cells by surface plasmon resonance assay
[5] = target: T1, Metallo-beta-lactamase type 2; assay: Competitive inhibition of His-tagged Klebsiella pneumoniae NDM-1 expressed in Escherichia coli BL21-AI cells using imipinem as substrate

T1 sequence (C7C422 whole entry): as above

Kd [1] | IC50 ([2]; read-out: IC50) | inhibition [3] | Ratio [4] | Ki [5] | IC50 ([2]; read-out: pIC50 (converted)) | Structure (SMILES)
806 µM | 1950 µM | > 20% | 1.5 | – | – | O=C(O)CCCc1c[nH]c2ccccc12
181 µM | 480 µM | > 20% | 1.5 | 186 µM | – | N#Cc1coc2ccccc2c1=O
2100 µM | 3110 µM | > 20% | 1.5 | – | – | CCCc1ccc(C(=O)CCC(=O)O)cc1
804 µM | 1240 µM | > 20% | 1.5 | – | 1070 µM | O=C(O)CSc1ccnc2cc(Cl)ccc12
11 µM | – | – | – | – | – | C[C@@H](O)[C@H]1C(=O)N2C(C(=O)O)=C(S[C@@H]3CN[C@H](C(=O)N(C)C)C3)[C@H](C)[C@H]12 [MEROPENEM]
